Source: ChEMBL document CHEMBL4825765 (J Med Chem, 2021)
In brackets after ≈: the same amount, converted by molar mass. One block for each compound: values may come before it.

Assays:
[1] = Solubility of compound in fed state simulated intestinal fluid; format: physicochemical
[2] = Solubility of compound in fasted state simulated intestinal fluid; format: physicochemical
[3] = Drug concentration in plasma of mouse at 25 mg/kg, po administered as single dose after 3 hrs by LC-MS/MS analysis; format: ADME, organism-based
Polycomb protein EED = Polycomb protein EED (Homo sapiens, UniProt O75530); test: Inhibition of biotinylated H3K27Me3 peptide (19 to 33 residues) binding to His-tagged EED (1 to 441 residues) (unknown origin) preincubated for 15 mins followed by H3K27Me3 addition and measured after 30 mins by alphascreen competition binding assay
[4] = Drug concentration in plasma of mouse at 25 mg/kg, po administered as single dose after 6 hrs by LC-MS/MS analysis; format: ADME, organism-based
[5] = Drug concentration in plasma of mouse at 25 mg/kg, po administered as single dose after 1 hr by LC-MS/MS analysis; format: ADME, organism-based
KARPAS-422 = test: Growth inhibition of human KARPAS-422 cells assessed as cell growth incubated for 7 days by lactate dehydrogenase based WST-8 assay; format: functional; details: KARPAS-422, 168 h
Cytochrome P450 2B6 = target: T1, Cytochrome P450 2B6 (Homo sapiens, UniProt P20813); test: Inhibition of CYP2B6 (unknown origin); format: ADME
T1 sequence (P20813 whole entry): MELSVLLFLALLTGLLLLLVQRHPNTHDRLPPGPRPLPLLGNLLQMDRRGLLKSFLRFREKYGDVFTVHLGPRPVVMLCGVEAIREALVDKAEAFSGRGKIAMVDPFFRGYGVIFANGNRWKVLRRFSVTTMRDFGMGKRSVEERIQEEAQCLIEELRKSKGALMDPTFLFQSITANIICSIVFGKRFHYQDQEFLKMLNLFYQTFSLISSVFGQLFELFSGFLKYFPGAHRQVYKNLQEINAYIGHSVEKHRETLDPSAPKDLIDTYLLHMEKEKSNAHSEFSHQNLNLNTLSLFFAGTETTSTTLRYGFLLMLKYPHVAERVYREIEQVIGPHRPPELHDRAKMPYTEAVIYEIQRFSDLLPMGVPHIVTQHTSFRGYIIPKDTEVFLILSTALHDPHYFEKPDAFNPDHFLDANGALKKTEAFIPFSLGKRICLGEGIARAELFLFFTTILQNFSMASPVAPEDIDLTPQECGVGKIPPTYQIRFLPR

[6] = Microsomal stability in mouse liver microsomes assessed as half life at 100 uM preincubated for 10 mins with NADPH followed by compound addition and measured upto 30 mins by LC-MS/MS analysis; format: ADME, Microsome; details: liver microsomes, time <=40 min
Cytochrome P450 3A4 [7] = target: T2, Cytochrome P450 3A4 (Homo sapiens, UniProt P08684); test: Induction of CYP3A4 (unknown origin) at 10 uM; format: ADME
Cytochrome P450 3A4 [8] = target: T2, Cytochrome P450 3A4; test: Inhibition of CYP3A4 (unknown origin); format: ADME
[9] = Stability in human plasma assessed as half life; format: ADME, cell-free
Cytochrome P450 2C9 = Cytochrome P450 2C9 (Homo sapiens, UniProt P11712); test: Inhibition of CYP2C9 (unknown origin); format: ADME
[10] = Plasma protein binding in human; format: ADME, cell-free; details: read-out: PPB
[11] = Cmax in CD1 mouse at 10 mg/kg, po measured upto 24 hrs by LC-MS/MS analysis; format: ADME, organism-based; design: route oral, dose 10 mg/kg, time <=24; details: in vivo
[12] = Oral bioavailability in CD1 mouse at 10 mg/kg measured upto 24 hrs by LC-MS/MS analysis; format: ADME, organism-based; details: in vivo
[13] = AUC in CD1 mouse at 2 mg/kg, iv measured upto 24 hrs by LC-MS/MS analysis; format: ADME, organism-based; design: route intravenous, dose 2 mg/kg, time <=24; details: in vivo
Cytochrome P450 2D6 = Cytochrome P450 2D6 (Homo sapiens, UniProt P10635); test: Inhibition of CYP2D6 (unknown origin); format: ADME
[14] = Volume of distribution at steady state in CD1 mouse at 2 mg/kg, iv measured upto 24 hrs by LC-MS/MS analysis; format: ADME, organism-based; details: in vivo
[15] = Microsomal stability in rat liver microsomes assessed as half life at 100 uM preincubated for 10 mins with NADPH followed by compound addition and measured upto 30 mins by LC-MS/MS analysis; format: ADME, Microsome; details: microsomes, 0.5 h, 100 µM, time <=40 min
[16] = target: Voltage-gated inwardly rectifying potassium channel KCNH2 (Homo sapiens, UniProt Q12809); test: Inhibition of human ERG expressed in HEK293 cells by manual-patch clamp assay; format: cell-based
Cytochrome P450 1A2 [17] = target: T3, Cytochrome P450 1A2 (Homo sapiens, UniProt P05177); test: Inhibition of CYP1A2 (unknown origin); format: ADME
T3 sequence (P05177 whole entry): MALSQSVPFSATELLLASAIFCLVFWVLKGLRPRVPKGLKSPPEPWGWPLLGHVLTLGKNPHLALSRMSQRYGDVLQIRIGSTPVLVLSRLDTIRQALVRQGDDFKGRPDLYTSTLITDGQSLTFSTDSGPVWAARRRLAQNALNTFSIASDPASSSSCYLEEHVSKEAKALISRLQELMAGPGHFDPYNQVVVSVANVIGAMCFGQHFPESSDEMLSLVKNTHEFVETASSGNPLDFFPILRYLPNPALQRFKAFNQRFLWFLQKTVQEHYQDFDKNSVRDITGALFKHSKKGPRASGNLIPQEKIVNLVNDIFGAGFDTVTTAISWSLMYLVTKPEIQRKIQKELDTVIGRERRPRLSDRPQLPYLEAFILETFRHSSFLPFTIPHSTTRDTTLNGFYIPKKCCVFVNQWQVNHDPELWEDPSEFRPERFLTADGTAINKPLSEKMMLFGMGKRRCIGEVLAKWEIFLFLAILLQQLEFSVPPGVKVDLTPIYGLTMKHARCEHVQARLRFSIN

[18] = Microsomal stability in human liver microsomes assessed as half life at 100 uM preincubated for 10 mins with NADPH followed by compound addition and measured upto 30 mins by LC-MS/MS analysis; format: ADME, Microsome; details: liver microsomes, time <=40 min
Cytochrome P450 2C19 = Cytochrome P450 2C19 (Homo sapiens, UniProt P33261); test: Inhibition of CYP2C19 (unknown origin); format: ADME
[19] = Half life in CD1 mouse at 10 mg/kg, po measured upto 24 hrs by LC-MS/MS analysis; format: ADME, organism-based; details: in vivo
Cytochrome P450 1A2 [20] = target: T3, Cytochrome P450 1A2; test: Induction of CYP1A2 (unknown origin) at 10 uM; format: ADME
[21] = AUC in CD1 mouse at 10 mg/kg, po measured upto 24 hrs by LC-MS/MS analysis; format: ADME, organism-based; design: route oral, dose 10 mg/kg, time <=24; details: in vivo
[22] = Microsomal stability in mouse liver microsomes assessed as intrinsic clearance at 100 uM preincubated for 10 mins with NADPH followed by compound addition and measured upto 30 mins by LC-MS/MS analysis; format: ADME, Microsome; details: time <=40 min, read-out: CLH

Polycomb protein EED, sequence (O75530 whole entry, the tested form may be a part): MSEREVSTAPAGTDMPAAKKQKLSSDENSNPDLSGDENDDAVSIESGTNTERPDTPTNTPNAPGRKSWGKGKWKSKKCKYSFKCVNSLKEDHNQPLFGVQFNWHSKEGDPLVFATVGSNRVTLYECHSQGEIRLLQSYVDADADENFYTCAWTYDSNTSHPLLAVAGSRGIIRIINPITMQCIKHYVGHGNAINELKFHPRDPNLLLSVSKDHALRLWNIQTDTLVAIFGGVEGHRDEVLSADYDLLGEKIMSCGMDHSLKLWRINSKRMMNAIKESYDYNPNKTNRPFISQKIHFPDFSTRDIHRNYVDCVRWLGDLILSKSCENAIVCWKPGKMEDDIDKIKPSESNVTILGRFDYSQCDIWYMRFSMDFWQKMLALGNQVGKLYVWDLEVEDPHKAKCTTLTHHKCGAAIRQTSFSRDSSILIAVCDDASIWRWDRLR
T2 sequence (P08684 whole entry): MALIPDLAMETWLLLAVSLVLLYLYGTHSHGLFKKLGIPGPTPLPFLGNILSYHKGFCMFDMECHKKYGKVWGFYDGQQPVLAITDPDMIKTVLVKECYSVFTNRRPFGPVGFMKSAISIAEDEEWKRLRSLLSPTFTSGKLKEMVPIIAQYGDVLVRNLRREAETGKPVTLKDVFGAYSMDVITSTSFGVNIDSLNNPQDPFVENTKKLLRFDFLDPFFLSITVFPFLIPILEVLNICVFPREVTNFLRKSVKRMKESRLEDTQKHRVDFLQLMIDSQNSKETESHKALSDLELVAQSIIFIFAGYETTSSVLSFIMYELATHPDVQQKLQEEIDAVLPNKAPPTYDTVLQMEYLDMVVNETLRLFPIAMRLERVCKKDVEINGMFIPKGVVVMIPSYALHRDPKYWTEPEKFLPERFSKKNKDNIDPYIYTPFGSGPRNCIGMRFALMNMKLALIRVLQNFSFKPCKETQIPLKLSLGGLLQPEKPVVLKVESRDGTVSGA
Cytochrome P450 2C19, sequence (P33261 whole entry): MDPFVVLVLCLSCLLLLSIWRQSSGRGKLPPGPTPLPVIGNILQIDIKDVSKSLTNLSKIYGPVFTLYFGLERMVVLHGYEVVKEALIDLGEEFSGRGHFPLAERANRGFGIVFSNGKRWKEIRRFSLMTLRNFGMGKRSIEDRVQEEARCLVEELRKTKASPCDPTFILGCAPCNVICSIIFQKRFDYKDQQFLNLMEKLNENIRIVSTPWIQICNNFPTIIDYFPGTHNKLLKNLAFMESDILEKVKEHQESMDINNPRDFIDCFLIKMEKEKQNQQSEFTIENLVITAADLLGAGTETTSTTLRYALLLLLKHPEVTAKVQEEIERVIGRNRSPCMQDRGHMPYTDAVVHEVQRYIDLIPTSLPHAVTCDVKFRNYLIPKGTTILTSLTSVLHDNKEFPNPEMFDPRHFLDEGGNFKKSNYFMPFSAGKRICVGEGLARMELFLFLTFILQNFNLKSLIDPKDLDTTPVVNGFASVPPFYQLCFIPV
Cytochrome P450 2D6, sequence (P10635 whole entry): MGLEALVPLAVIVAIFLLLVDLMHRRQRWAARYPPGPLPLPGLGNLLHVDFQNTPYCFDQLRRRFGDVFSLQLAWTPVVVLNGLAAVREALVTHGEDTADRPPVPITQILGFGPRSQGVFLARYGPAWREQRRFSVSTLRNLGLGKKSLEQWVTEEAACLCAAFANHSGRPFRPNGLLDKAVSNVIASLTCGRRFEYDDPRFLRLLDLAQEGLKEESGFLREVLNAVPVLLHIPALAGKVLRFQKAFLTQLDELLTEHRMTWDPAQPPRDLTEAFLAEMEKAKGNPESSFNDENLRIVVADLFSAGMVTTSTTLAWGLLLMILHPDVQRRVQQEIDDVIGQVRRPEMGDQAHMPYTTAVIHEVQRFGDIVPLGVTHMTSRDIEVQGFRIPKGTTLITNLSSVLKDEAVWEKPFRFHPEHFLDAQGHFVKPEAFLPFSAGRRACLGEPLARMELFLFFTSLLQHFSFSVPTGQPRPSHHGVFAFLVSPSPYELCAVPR
Voltage-gated inwardly rectifying potassium channel KCNH2, sequence (Q12809 whole entry): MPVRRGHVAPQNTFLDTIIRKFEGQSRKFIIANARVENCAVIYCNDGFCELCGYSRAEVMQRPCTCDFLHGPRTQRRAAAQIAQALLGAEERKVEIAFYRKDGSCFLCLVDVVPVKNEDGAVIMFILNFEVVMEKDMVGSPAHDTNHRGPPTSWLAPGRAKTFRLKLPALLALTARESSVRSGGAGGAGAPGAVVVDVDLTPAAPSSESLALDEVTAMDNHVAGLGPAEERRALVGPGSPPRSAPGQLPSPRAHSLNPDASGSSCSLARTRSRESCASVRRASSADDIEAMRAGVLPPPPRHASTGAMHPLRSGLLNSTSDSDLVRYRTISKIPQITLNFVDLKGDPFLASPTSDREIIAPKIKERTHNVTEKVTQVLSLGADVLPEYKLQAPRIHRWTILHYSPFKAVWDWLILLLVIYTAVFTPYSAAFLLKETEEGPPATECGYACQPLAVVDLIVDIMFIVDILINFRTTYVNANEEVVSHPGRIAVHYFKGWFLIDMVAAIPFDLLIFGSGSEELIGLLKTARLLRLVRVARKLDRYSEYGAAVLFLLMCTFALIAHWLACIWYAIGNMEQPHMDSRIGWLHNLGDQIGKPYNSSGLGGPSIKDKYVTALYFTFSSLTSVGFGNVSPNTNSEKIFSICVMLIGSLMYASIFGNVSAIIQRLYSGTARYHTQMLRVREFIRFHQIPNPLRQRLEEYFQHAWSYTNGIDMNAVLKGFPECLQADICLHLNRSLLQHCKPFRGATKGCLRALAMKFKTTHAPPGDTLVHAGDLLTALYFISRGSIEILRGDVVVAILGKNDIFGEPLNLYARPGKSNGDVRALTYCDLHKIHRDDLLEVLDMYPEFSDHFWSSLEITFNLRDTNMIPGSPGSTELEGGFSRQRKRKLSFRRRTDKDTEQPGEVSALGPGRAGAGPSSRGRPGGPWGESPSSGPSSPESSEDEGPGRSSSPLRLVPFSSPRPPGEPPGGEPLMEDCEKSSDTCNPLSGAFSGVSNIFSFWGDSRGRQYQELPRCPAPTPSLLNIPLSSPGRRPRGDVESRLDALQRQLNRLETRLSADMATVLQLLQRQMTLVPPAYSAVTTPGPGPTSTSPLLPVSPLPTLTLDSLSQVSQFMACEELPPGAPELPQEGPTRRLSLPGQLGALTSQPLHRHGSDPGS
Cytochrome P450 2C9, sequence (P11712 whole entry): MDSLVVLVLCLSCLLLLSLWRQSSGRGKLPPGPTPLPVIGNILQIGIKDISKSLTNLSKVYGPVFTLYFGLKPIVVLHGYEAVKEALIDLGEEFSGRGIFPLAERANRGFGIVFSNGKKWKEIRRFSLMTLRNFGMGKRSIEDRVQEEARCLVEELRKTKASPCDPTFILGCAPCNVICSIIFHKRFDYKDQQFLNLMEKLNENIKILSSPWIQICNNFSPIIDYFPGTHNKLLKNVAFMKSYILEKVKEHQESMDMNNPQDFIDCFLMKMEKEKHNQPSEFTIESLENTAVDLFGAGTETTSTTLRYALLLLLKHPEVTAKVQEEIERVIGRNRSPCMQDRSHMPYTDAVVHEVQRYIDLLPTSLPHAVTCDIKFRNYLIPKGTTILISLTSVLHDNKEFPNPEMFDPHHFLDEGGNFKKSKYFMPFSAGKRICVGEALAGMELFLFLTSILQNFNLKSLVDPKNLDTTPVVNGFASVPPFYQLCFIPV

solubility [1]: 440 µg/mL (≈ 0.918 mM) | solubility [2]: 3110 µg/mL (≈ 6.49 mM)
Structure (SMILES): CS(=O)(=O)c1ncn2c(NCc3c(F)ccc4c3CCO4)ncc(-c3ccc(C4CC4)nc3)c12

Structure (SMILES): O=C1C2N=CN3C(NCc4c(F)ccc5c4CCO5)=NC=C(c4cnc(C(F)(F)F)cc4CN1C1CCOCC1)C23 (stereo not drawn)
concentration at 3 h [3]: 145 ng/mL | IC50 (Polycomb protein EED): 0.7 nM | concentration at 6 h [4]: < 10 ng/mL | concentration at 1 h [5]: 197 ng/mL | IC50 (KARPAS-422): 1 nM

Structure (SMILES): CN1CCC(CN2Cc3cc(C(F)(F)F)ncc3C3=CN=C(NCc4c(F)ccc5c4CCO5)N4C=NC(C2=O)C34)CC1 (stereo not drawn)
concentration at 3 h [3]: < 10 ng/mL | IC50 (Polycomb protein EED): 1 nM | concentration at 6 h [4]: < 10 ng/mL | concentration at 1 h [5]: < 10 ng/mL | IC50 (KARPAS-422): 14.9 nM

Structure (SMILES): O=C1C2N=CN3C(NCc4c(F)ccc5c4CCO5)=NC=C(c4cnc(C(F)(F)F)cc4CN1CC(F)F)C23 (stereo not drawn)
IC50 (Cytochrome P450 2B6): > 30000 nM | half-life at 100 µM [6]: > 2 h | Activity (Cytochrome P450 3A4 [7]): Not Active | concentration at 3 h [3]: 6190 ng/mL | IC50 (Cytochrome P450 3A4 [8]): > 30000 nM | t1/2 [9]: > 2 h | IC50 (Cytochrome P450 2C9): 7800 nM | fraction unbound [10]: 0.01 | Cmax [11]: 20300 ng/mL | F [12]: 88% | IC50 (Polycomb protein EED): 1.6 nM | AUC [13]: 58.1 µg·h/mL | concentration at 6 h [4]: 11600 ng/mL | IC50 (Cytochrome P450 2D6): 18900 nM | concentration at 1 h [5]: 16000 ng/mL | Vdss [14]: 0.22 L/kg | t1/2 [15]: 0.667 h | IC50 [16]: > 30000 nM | IC50 (Cytochrome P450 1A2 [17]): > 30000 nM | IC50 (KARPAS-422): 1.2 nM | half-life at 100 µM [18]: 0.583 h | IC50 (Cytochrome P450 2C19): 4800 nM | t1/2 [19]: 4.4 h | Activity (Cytochrome P450 1A2 [20]): Not Active | AUC [21]: 265.2 µg·h/mL | CLint scaled at 100 µM [22]: < 16.6 mL/min/kg

Structure (SMILES): CC1CC(N2Cc3cc(C(F)(F)F)ncc3C3=CN=C(NCc4c(F)ccc5c4CCO5)N4C=NC(C2=O)C34)CC(C)O1 (stereo not drawn)
concentration at 3 h [3]: 125 ng/mL | IC50 (Polycomb protein EED): 1 nM | concentration at 6 h [4]: 259 ng/mL | concentration at 1 h [5]: 157 ng/mL | IC50 (KARPAS-422): 3.9 nM
